24 compounds from BindingDB's records for doi:10.1016/j.bmc.2020.115716 (Chemical Diversity Research Institute, 2020) can be followed below.

A short description of assay [1]: Inhibition of HCV genotype 2a NS5A infected in Huh7 cells assessed as reduction in viral replication incubated 3 days and measured by bright Glo-luciferase reporter gene assay.
The nature of assay [2]: Inhibition of HCV genotype 4a NS5A infected in Huh7 cells assessed as reduction in viral replication incubated 3 days and measured by bright Glo-luciferase reporter gene assay. A general note: Reporter assays use an easily measured gene product as a stand-in for the process of interest.
The nature of assay [3]: Inhibition of HCV genotype 3a NS5A infected in Huh7 cells assessed as reduction in viral replication incubated 3 days and measured by bright Glo-luciferase reporter gene assay.
The nature of assay [4]: Inhibition of HCV genotype 5a NS5A infected in Huh7 cells assessed as reduction in viral replication incubated 3 days and measured by bright Glo-luciferase reporter gene assay.
The nature of assay [5]: Inhibition of HCV genotype 1a NS5A infected in Huh7 cells assessed as reduction in viral replication incubated 3 days and measured by bright Glo-luciferase reporter gene assay.
Assay [6] in a line: Inhibition of HCV genotype 1b NS5A infected in Huh7 cells assessed as reduction in viral replication incubated 3 days and measured by Bright-Glo luciferase assay.

Each structure is given as a SMILES string.

As usually defined, the IC50 is the midpoint of a concentration-inhibition curve. As usually defined, the EC50 is the concentration that produces a half-maximal response.

With `COC(=O)N[C@H](C(=O)N1CCC[C@H]1c1ncc(-c2ccc(C#CC#Cc3cnc([C@@H]4CCCN4C(=O)[C@H](NC(=O)OC)c4ccccc4)[nH]3)c(N(C)c3ccccc3)c2)[nH]1)C(C)C`, the IC50 in assay [1] amounted to 0.011 nM; in assay [2], 0.011 nM; in assay [3] it was 0.035 nM; in assay [4], 0.027 nM; in assay [5], 0.072 nM.
`COC(=O)N[C@H](C(=O)N1CCC[C@H]1c1ncc(-c2ccc(C#CC#Cc3cnc([C@@H]4CCCN4C(=O)[C@H](NC(=O)OC)c4ccccc4)[nH]3)c(-c3cccc(F)c3F)c2)[nH]1)C(C)C`: the IC50 is 0.001 nM in assay [1], 0.016 nM in assay [3], 0.019 nM in assay [4] and 0.028 nM in assay [5].
For the compound `COC(=O)N[C@H](C(=O)N1CCC[C@H]1c1ncc(-c2cc(C)c(C#CC#Cc3cnc([C@@H]4CCCN4C(=O)[C@H](NC(=O)OC)c4ccccc4)[nH]3)c(-c3ccccc3)c2)[nH]1)C(C)C`, the IC50 in assay [1] is 0.003 nM; in assay [2], 0.01 nM; in assay [3], 0.026 nM; in assay [5], 0.124 nM.
As for `COC(=O)N[C@H](C(=O)N1CCC[C@H]1c1ncc(-c2ccc(C#CC#Cc3cnc([C@@H]4CCCN4C(=O)[C@H](NC(=O)OC)c4ccccc4)[nH]3)c(-c3cccc(C(C)(C)C)c3)c2)[nH]1)C(C)C`, the concentration for half-maximal inhibition (IC50) stood at 0.104 nM in assay [1]; 0.007 nM in assay [2]; 0.093 nM in assay [3]; 0.107 nM in assay [4]; 1.07 nM in assay [5].
On to `COC(=O)N[C@H](C(=O)N1CCC[C@H]1c1ncc(-c2ccc(C#CC#Cc3cnc([C@@H]4CCCN4C(=O)[C@H](NC(=O)OC)c4ccccc4)[nH]3)c(-c3ccc(N(C)C)cc3)c2)[nH]1)C(C)C`, for which the IC50 stood at 0.013 nM in assay [1]; 0.011 nM in assay [2]; 0.038 nM in assay [3]; 0.052 nM in assay [4]; 0.138 nM in assay [5].
Take `COC(=O)N[C@H](C(=O)N1CCC[C@H]1c1ncc(C#CC#Cc2ccc(-c3cnc([C@@H]4CCCN4C(=O)[C@H](NC(=O)OC)c4ccccc4)[nH]3)cc2)[nH]1)C(C)C`: the IC50 in assay [1] was found to be 0.007 nM; in assay [2] it was 0.012 nM; in assay [3] it was 0.629 nM; in assay [4], 0.1 nM; in assay [5] it was 0.21 nM. The EC50 in assay [6] was 0.006 nM.
As for `COC(=O)N[C@H](C(=O)N1CCC[C@H]1c1ncc(-c2ccc(C#CC#Cc3cnc([C@@H]4CCCN4C(=O)[C@@H](NC(=O)OC)C(C)C)[nH]3)cc2)[nH]1)c1ccccc1`, the IC50 in assay [1] stood at 0.12 nM; in assay [2] it was 0.123 nM; in assay [3], 4.92 nM; in assay [4], 0.2 nM; in assay [5], 1.34 nM. Further, in assay [6], the EC50 worked out at 0.012 nM.
Take `COC(=O)N[C@H](C(=O)N1CCC[C@H]1c1ncc(C#CC#Cc2ccc(-c3cnc([C@@H]4CCCN4C(=O)[C@@H](NC(=O)OC)C(C)C)[nH]3)cc2-c2cccc(-c3ccccc3)c2)[nH]1)C(C)C`: the IC50 in assay [1] turned out to be 0.449 nM; in assay [2], 0.019 nM; in assay [3], 2.79 nM; in assay [4], 0.763 nM; in assay [5], 0.47 nM.
`COC(=O)N[C@H](C(=O)N1CCC[C@H]1c1ncc(C#CC#Cc2c(C)cc(-c3cnc([C@@H]4CCCN4C(=O)[C@@H](NC(=O)OC)C(C)C)[nH]3)cc2-c2ccccc2)[nH]1)C(C)C`: the IC50 in assay [1] was 0.008 nM; in assay [2], 0.006 nM; in assay [3], 0.364 nM; in assay [4] it was 0.027 nM; in assay [5], 0.037 nM.
`COC(=O)N[C@H](C(=O)N1CCC[C@H]1c1ncc(C#CC#Cc2c(F)cc(-c3cnc([C@@H]4CCCN4C(=O)[C@@H](NC(=O)OC)C(C)C)[nH]3)cc2-c2ccccc2)[nH]1)C(C)C`: the IC50 in assay [1] is 0.015 nM; in assay [2], 0.019 nM; in assay [3], 0.459 nM; in assay [4], 0.12 nM; in assay [5] it was 0.064 nM.
Regarding `COC(=O)N[C@H](C(=O)N1CCC[C@H]1c1ncc(C#CC#Cc2ccc(-c3cnc([C@@H]4CCCN4C(=O)[C@@H](NC(=O)OC)C(C)C)[nH]3)cc2-c2ccccc2)[nH]1)C(C)C`, the IC50 came to 0.03 nM in assay [1]; 0.007 nM in assay [2]; 1.31 nM in assay [3]; 0.129 nM in assay [4]; 0.072 nM in assay [5]. Further, the EC50 in assay [6] came out at 0.002 nM.
With `COC(=O)N[C@H](C(=O)N1CCC[C@H]1c1ncc(-c2cc(F)c(C#CC#Cc3cnc([C@@H]4CCCN4C(=O)[C@H](NC(=O)OC)c4ccccc4)[nH]3)c(-c3ccccc3)c2)[nH]1)C(C)C`, the IC50 stood at 0.005 nM in assay [1]; 0.012 nM in assay [2]; 0.02 nM in assay [3]; 0.026 nM in assay [4]; 0.051 nM in assay [5].
In the case of `COC(=O)N[C@H](C(=O)N1CCC[C@H]1c1ncc(-c2ccc(C#CC#Cc3cnc([C@@H]4CCCN4C(=O)[C@H](NC(=O)OC)c4ccccc4)[nH]3)c(Oc3ccccc3)c2)[nH]1)C(C)C`, the IC50 was found to be 0.013 nM in assay [1]; 0.008 nM in assay [2]; 0.04 nM in assay [3]; 0.019 nM in assay [4]; 0.214 nM in assay [5].
As for `COC(=O)N[C@H](C(=O)N1CCC[C@H]1c1ncc(-c2ccc(C#CC#Cc3cnc([C@@H]4CCCN4C(=O)[C@H](NC(=O)OC)c4ccccc4)[nH]3)c(Sc3ccccc3)c2)[nH]1)C(C)C`, the half-inhibitory concentration (IC50) in assay [1] was determined as 0.014 nM; in assay [2] it was 0.009 nM; in assay [3], 0.091 nM; in assay [4], 0.035 nM; in assay [5], 0.257 nM.
Turning to `COC(=O)N[C@H](C(=O)N1CCC[C@H]1c1ncc(-c2ccc(C#CC#Cc3cnc([C@@H]4CCCN4C(=O)[C@H](NC(=O)OC)c4ccccc4)[nH]3)c(-c3ccc(N4CCN(C)CC4)cc3)c2)[nH]1)C(C)C`, the IC50 turned out to be 0.023 nM in assay [1]; 0.548 nM in assay [2]; 0.353 nM in assay [3]; 1.4 nM in assay [4]; 0.113 nM in assay [5]. Also, the EC50 in assay [6] amounted to 0.004 nM.
Turning to `COC(=O)N[C@H](C(=O)N1CCC[C@H]1c1ncc(-c2ccc(C#CC#Cc3cnc([C@@H]4CCCN4C(=O)[C@H](NC(=O)OC)c4ccccc4)[nH]3)c(-c3cccc(-c4ccccc4)c3)c2)[nH]1)C(C)C`, the IC50 in assay [1] worked out at 0.033 nM; in assay [2], 0.011 nM; in assay [3], 0.123 nM; in assay [4], 0.122 nM; in assay [5], 0.626 nM.
Take `COC(=O)N[C@H](C(=O)N1CCC[C@H]1c1ncc(-c2ccc(C#CC#Cc3cnc([C@@H]4CCCN4C(=O)[C@H](NC(=O)OC)c4ccccc4)[nH]3)c(-c3ccc(-c4ccccc4)cc3)c2)[nH]1)C(C)C`: the IC50 amounted to 0.006 nM in assay [2], 0.064 nM in assay [3], 0.131 nM in assay [4] and 0.418 nM in assay [5].
With `COC(=O)N[C@H](C(=O)N1CCC[C@H]1c1ncc(-c2ccc(C#CC#Cc3cnc([C@@H]4CCCN4C(=O)[C@H](NC(=O)OC)c4ccccc4)[nH]3)c(N3CCN(C)CC3)c2)[nH]1)C(C)C`, the IC50 is 0.143 nM in assay [1]; above 10 nM in assay [2]; above 10 nM in assay [3]; 3.1 nM in assay [4]; 0.473 nM in assay [5]. The EC50 in assay [6] stood at 0.034 nM.
In the case of `COC(=O)N[C@H](C(=O)N1CCC[C@H]1c1ncc(-c2ccc(C#CC#Cc3cnc([C@@H]4CCCN4C(=O)[C@H](NC(=O)OC)c4ccccc4)[nH]3)c(-c3ccccc3)c2)[nH]1)C(C)C`, the half-maximal effective concentration (EC50) in assay [6] is 0.0029 nM. In addition, the values for the IC50 in assay [3], in assay [4] and in assay [5] were 0.034 nM, 0.026 nM and 0.045 nM, respectively.
`COC(=O)N[C@H](C(=O)N1CCC[C@H]1c1ncc(-c2ccc(C#CC#Cc3cnc([C@@H]4CCCN4C(=O)[C@H](NC(=O)OC)c4ccccc4)[nH]3)c(-c3ccc(C(C)(C)C)cc3)c2)[nH]1)C(C)C`: the IC50 came to 0.01 nM in assay [2], 0.362 nM in assay [3], 0.693 nM in assay [4] and 2.3 nM in assay [5].
For `COC(=O)N[C@H](C(=O)N1CCC[C@H]1c1ncc(-c2ccc(C#CC#Cc3cnc([C@@H]4CCCN4C(=O)[C@H](NC(=O)OC)c4ccccc4)[nH]3)cc2)[nH]1)C(C)C`, the IC50 in assay [1] is 0.016 nM; in assay [2], 0.036 nM; in assay [3], 0.329 nM; in assay [4], 0.126 nM; in assay [5], 0.276 nM. In addition, the EC50 in assay [6] came out at 0.007 nM.
With `COC(=O)N[C@H](C(=O)N1CCC[C@H]1c1ncc(C#CC#Cc2ccc(-c3cnc([C@@H]4CCCN4C(=O)[C@@H](NC(=O)OC)C(C)C)[nH]3)cc2)[nH]1)c1ccccc1`, the IC50 in assay [1] stood at 0.431 nM; in assay [2], 0.423 nM; in assay [3] it was 10.7 nM; in assay [4] it was 6.4 nM; in assay [5], 0.758 nM. In assay [6], the EC50 amounted to 0.012 nM.
Consider `COC(=O)N[C@H](C(=O)N1CCC[C@H]1c1ncc(C#CC#Cc2ccc(-c3cnc([C@@H]4CCCN4C(=O)[C@@H](NC(=O)OC)C(C)C)[nH]3)cc2-c2ccc3ccccc3c2)[nH]1)C(C)C`, for which the IC50 in assay [1] stood at 0.028 nM; in assay [2] it was 0.008 nM; in assay [3], 0.864 nM; in assay [4], 0.267 nM; in assay [5], 0.248 nM.
As for `COC(=O)N[C@H](C(=O)N1CCC[C@H]1c1ncc(C#CC#Cc2ccc(-c3cnc([C@@H]4CCCN4C(=O)[C@@H](NC(=O)OC)C(C)C)[nH]3)cc2-c2ccc(C(C)(C)C)cc2)[nH]1)C(C)C`, the IC50 in assay [1] was 1.68 nM; in assay [2] it was 0.011 nM; in assay [3], 1.29 nM; in assay [4], 0.356 nM; in assay [5], 0.642 nM.
